{
  "source": "PubChem BioAssay (NCI)",
  "test_in_all_cases": "NCI anticancer screen, dose series, 48 h",
  "key": {"[1]": {"tested_on": "NCI-H23 lung"}, "[2]": {"tested_on": "NCI-H460 lung"}, "[3]": {"tested_on": "NCI-H522 lung"}, "[4]": {"tested_on": "NCI/ADR-RES ovarian"}, "[5]": {"tested_on": "OVCAR-3 ovarian"}, "[6]": {"tested_on": "OVCAR-4 ovarian"}, "[7]": {"tested_on": "OVCAR-5 ovarian"}, "[8]": {"tested_on": "OVCAR-8 ovarian"}, "[9]": {"tested_on": "PC-3 prostate"}, "[10]": {"tested_on": "RPMI-8226 leukemia"}, "[11]": {"tested_on": "RXF 393 renal"}, "[12]": {"tested_on": "SF-268 CNS"}, "[13]": {"tested_on": "SF-295 CNS"}, "[14]": {"tested_on": "SF-539 CNS"}, "[15]": {"tested_on": "SK-MEL-2 melanoma"}, "[16]": {"tested_on": "SK-MEL-28 melanoma"}, "[17]": {"tested_on": "SK-MEL-5 melanoma"}, "[18]": {"tested_on": "SK-OV-3 ovarian"}, "[19]": {"tested_on": "SN12C renal"}, "[20]": {"tested_on": "SNB-19 CNS"}, "[21]": {"tested_on": "SNB-75 CNS"}, "[22]": {"tested_on": "SR leukemia"}, "[23]": {"tested_on": "SW-620 colon"}, "[24]": {"tested_on": "T-47D breast"}, "[25]": {"tested_on": "U251 CNS"}, "[26]": {"tested_on": "UACC-257 melanoma"}, "[27]": {"tested_on": "UACC-62 melanoma"}, "[28]": {"tested_on": "UO-31 renal"}},
  "note": "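Following 48 hours of exposure in 96-well plates, responses at five concentrations were used to interpolate endpoints linearly. GI50: concentration for 50% inhibition of growth. TGI denotes the concentration required for complete inhibition of growth.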",
  "data": [
    {"smiles": "N#C/C(=C\\c1cn(-c2ccccc2)c2ccccc12)C(=O)O", "values": [
      {"measurement": "TGI", "setting": "[1]", "value": "> 100", "unit": "µM"},
      {"measurement": "GI50", "setting": "[2]", "value": 30, "unit": "µM"},
      {"measurement": "TGI", "setting": "[2]", "value": "> 100", "unit": "µM"},
      {"measurement": "GI50", "setting": "[3]", "value": 29, "unit": "µM"},
      {"measurement": "TGI", "setting": "[3]", "value": 88.8, "unit": "µM"},
      {"measurement": "GI50", "setting": "[4]", "value": 57.7, "unit": "µM"},
      {"measurement": "TGI", "setting": "[4]", "value": "> 100", "unit": "µM"},
      {"measurement": "GI50", "setting": "[5]", "value": 18.8, "unit": "µM"},
      {"measurement": "TGI", "setting": "[5]", "value": 43.9, "unit": "µM"},
      {"measurement": "GI50", "setting": "[6]", "value": 39.1, "unit": "µM"},
      {"measurement": "TGI", "setting": "[6]", "value": "> 100", "unit": "µM"},
      {"measurement": "GI50", "setting": "[7]", "value": 95.5, "unit": "µM"},
      {"measurement": "TGI", "setting": "[7]", "value": "> 100", "unit": "µM"},
      {"measurement": "GI50", "setting": "[8]", "value": 44.6, "unit": "µM"},
      {"measurement": "TGI", "setting": "[8]", "value": "> 100", "unit": "µM"},
      {"measurement": "GI50", "setting": "[9]", "value": 58.3, "unit": "µM"},
      {"measurement": "TGI", "setting": "[9]", "value": "> 100", "unit": "µM"},
      {"measurement": "GI50", "setting": "[10]", "value": 43, "unit": "µM"},
      {"measurement": "TGI", "setting": "[10]", "value": "> 100", "unit": "µM"},
      {"measurement": "GI50", "setting": "[11]", "value": 28.7, "unit": "µM"},
      {"measurement": "TGI", "setting": "[11]", "value": "> 100", "unit": "µM"},
      {"measurement": "GI50", "setting": "[12]", "value": 43.4, "unit": "µM"},
      {"measurement": "TGI", "setting": "[12]", "value": "> 100", "unit": "µM"},
      {"measurement": "GI50", "setting": "[13]", "value": 28.1, "unit": "µM"},
      {"measurement": "TGI", "setting": "[13]", "value": "> 100", "unit": "µM"},
      {"measurement": "GI50", "setting": "[14]", "value": 39.2, "unit": "µM"},
      {"measurement": "TGI", "setting": "[14]", "value": "> 100", "unit": "µM"},
      {"measurement": "GI50", "setting": "[15]", "value": 28, "unit": "µM"},
      {"measurement": "TGI", "setting": "[15]", "value": "> 100", "unit": "µM"},
      {"measurement": "GI50", "setting": "[16]", "value": 33.9, "unit": "µM"},
      {"measurement": "TGI", "setting": "[16]", "value": "> 100", "unit": "µM"},
      {"measurement": "GI50", "setting": "[17]", "value": 38.4, "unit": "µM"},
      {"measurement": "TGI", "setting": "[17]", "value": "> 100", "unit": "µM"},
      {"measurement": "GI50", "setting": "[18]", "value": 71.4, "unit": "µM"},
      {"measurement": "TGI", "setting": "[18]", "value": "> 100", "unit": "µM"},
      {"measurement": "GI50", "setting": "[19]", "value": 51.1, "unit": "µM"},
      {"measurement": "TGI", "setting": "[19]", "value": "> 100", "unit": "µM"},
      {"measurement": "GI50", "setting": "[20]", "value": 54.3, "unit": "µM"},
      {"measurement": "TGI", "setting": "[20]", "value": "> 100", "unit": "µM"},
      {"measurement": "GI50", "setting": "[21]", "value": 31.4, "unit": "µM"},
      {"measurement": "TGI", "setting": "[21]", "value": "> 100", "unit": "µM"},
      {"measurement": "GI50", "setting": "[22]", "value": 68.8, "unit": "µM"},
      {"measurement": "TGI", "setting": "[22]", "value": "> 100", "unit": "µM"},
      {"measurement": "GI50", "setting": "[23]", "value": 48.3, "unit": "µM"},
      {"measurement": "TGI", "setting": "[23]", "value": "> 100", "unit": "µM"},
      {"measurement": "GI50", "setting": "[24]", "value": 29.6, "unit": "µM"},
      {"measurement": "TGI", "setting": "[24]", "value": "> 100", "unit": "µM"},
      {"measurement": "GI50", "setting": "[25]", "value": 35, "unit": "µM"},
      {"measurement": "TGI", "setting": "[25]", "value": "> 100", "unit": "µM"},
      {"measurement": "GI50", "setting": "[26]", "value": "> 100", "unit": "µM"},
      {"measurement": "TGI", "setting": "[26]", "value": "> 100", "unit": "µM"},
      {"measurement": "GI50", "setting": "[27]", "value": 23.8, "unit": "µM"},
      {"measurement": "TGI", "setting": "[27]", "value": 85.6, "unit": "µM"},
      {"measurement": "GI50", "setting": "[28]", "value": 23.8, "unit": "µM"},
      {"measurement": "TGI", "setting": "[28]", "value": "> 100", "unit": "µM"}
    ]}
  ]
}
